# In PMC10877733, “Discovery and Characterization of VU0542270, the First Selective Inhibitor of Vascular Kir6.1/SUR2B KATP Channels” (Molecular Pharmacology, 2024):
# What was measured:
# Kir2.2 = target: T1, Kir2.2 (Homo sapiens, UniProt Q14500); assay: Thallium flux selectivity assay Kir2.2; format: cell-based
# T1 construct: expressed in transfected cells
# T1 sequence (Q14500 1-433): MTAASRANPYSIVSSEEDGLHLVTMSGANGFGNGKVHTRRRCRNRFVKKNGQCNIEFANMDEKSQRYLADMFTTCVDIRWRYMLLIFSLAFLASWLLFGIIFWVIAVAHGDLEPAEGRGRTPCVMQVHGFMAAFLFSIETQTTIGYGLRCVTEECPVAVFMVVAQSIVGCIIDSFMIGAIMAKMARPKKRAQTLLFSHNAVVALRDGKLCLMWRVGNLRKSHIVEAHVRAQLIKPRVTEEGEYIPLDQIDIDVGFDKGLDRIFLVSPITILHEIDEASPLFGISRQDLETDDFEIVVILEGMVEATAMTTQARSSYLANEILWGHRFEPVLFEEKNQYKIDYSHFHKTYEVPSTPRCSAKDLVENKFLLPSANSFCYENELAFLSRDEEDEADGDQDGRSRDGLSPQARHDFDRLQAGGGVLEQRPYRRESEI
# Method: (§1) Quantitative thallium flux assays of Kir6.1/SUR2B activity were performed essentially as described previously for Kir6.2/SUR1 ([Raphemot et al., 2014]; [Kharade et al., 2019]). Stable T-Rex-HEK293-Kir6.1/SUR2B cells or transiently transfected HEK293T cells were plated in polyamine-coated, clear-bottomed, black-walled 384-well plates and were cultured (37°C/5% CO2) overnight in Dulbecco’s modified Eagle’s medium (Gibco, Carlsbad, CA, 11995-065) containing 10% FBS (2 mM Penicillin-Streptomycin). The following day, cells were washed with assay buffer (i.e., Hanks’ balanced salt solution/20 mM HEPES) and loaded for 1 hour with thallium sensor dye Brilliant Thallium (Ion Bioscience, San Marcos, TX) at room temperature. Dye-loaded cells were washed with assay buffer and transferred to a Panoptic Kinetic Imaging Plate Reader (Wavefront Bioscience, Franklin, TN). Control and test compound treatments were for 4 minutes prior to adding 0.5 mM chloride-free thallium stimulus buffer (Ion Bioscience) to initiate thallium flux. […] Selectivity assays against other Kir channels were performed essentially as described previously ([Kharade et al., 2018]; [McClenahan et al., 2022]).
# Kir4.2 = target: T2, Kir4.2 (Homo sapiens, UniProt Q99712); assay: Thallium flux selectivity assay Kir4.2; format: cell-based
# T2 construct: expressed in transfected cells
# T2 sequence (Q99712 1-375): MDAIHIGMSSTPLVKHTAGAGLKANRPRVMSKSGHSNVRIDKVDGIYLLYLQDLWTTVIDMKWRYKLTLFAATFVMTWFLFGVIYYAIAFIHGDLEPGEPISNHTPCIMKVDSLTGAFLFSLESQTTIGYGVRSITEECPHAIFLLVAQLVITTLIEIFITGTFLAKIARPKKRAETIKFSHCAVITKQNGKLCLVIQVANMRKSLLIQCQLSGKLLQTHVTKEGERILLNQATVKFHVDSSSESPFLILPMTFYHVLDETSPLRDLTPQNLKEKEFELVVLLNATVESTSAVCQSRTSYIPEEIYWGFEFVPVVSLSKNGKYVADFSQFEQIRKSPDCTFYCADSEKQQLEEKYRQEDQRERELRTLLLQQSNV
# Method: as §1
# [1] = system: nine other members of the Kir channel family; assay: Thallium assays, panel of nine other members of the Kir channel family; format: cell-based; details: read-out: IC50 against panel of nine other Kir channel family members
# Method: as §1
# channels containing SUR1 = assay: Thallium flux, Kir6.1 or Kir6.2 co-expressed with SUR1 in transfected HEK-293 cells; format: cell-based; details: 3 µM, Fig. 4D
# From the text: The pcDNA3.1-SUR2B plasmid was generously provided by Dr. Colin Nichols (Washington University). The pcDNA5/TO-Kir6.1 plasmid was synthesized by GenScript. Stably transfected tetracycline-regulated expression human embryonic kidney-293 (T-Rex-HEK293) cells expressing both plasmids were generated by cotransfecting cells with Lipofectamine LTX followed by antibiotic selection and clonal selection using the thallium flux assay described below. Monoclonal lines expressing robust pinacidil-activated thallium flux were selected for high KATP channel activity. T-Rex-HEK293 cells expressing Kir6.2/SUR1 were created as described previously ([Raphemot et al., 2014]). The cell culture media contained Dulbecco’s modified Eagle’s medium (Gibco, 11965-092) supplied with heat-inactivated FBS (bio-techne, Minneapolis, MN S11150H,10%), Blasticidine HCl (Gibco, A11139-03, 10 ug/mL), Penicillin-Streptomycin (Gibco, 15140-122, 2 mM), G418 Sulfate (CORNING, Corning, NY, 30-234-CR, 1 mg/mL), and Hygromycin B (Invitrogen, Carlsbad, CA, 10687-010, 250 ug/mL). […]
# Quantitative thallium flux assays of Kir6.1/SUR2B activity were performed essentially as described previously for Kir6.2/SUR1 ([Raphemot et al., 2014]; [Kharade et al., 2019]). […] Dye-loaded cells were washed with assay buffer and transferred to a Panoptic Kinetic Imaging Plate Reader (Wavefront Bioscience, Franklin, TN). […]
# [2] = Intrinsic clearance in liver microsomes, human; format: in vitro ADME
# Method: The in vitro intrinsic clearance (CLint) of VU0542270 was investigated in commercially obtained hepatic microsomes from rat, mouse, and human donors using the substrate depletion (i.e., loss-of-parent versus time, or t1/2 method) approach with analyte detection via LC-MS/MS. For each species, mean per cent parent remaining values at each time point were calculated from replicates raw data (analyte:IS peak area ratios) and used to determine in vitro t1/2 and CLint.
# Experiments were carried out using a robot-assisted liquid handling system (TECAN model Evo 200). VU0542270 was incubated (1 µM final concentration) in buffer (100 mM potassium phosphate, pH 7.4, with 3 mM MgCl2) containing hepatic microsomes (0.5 mg/mL final concentration) from multiple species, discretely, at 37°C under constant orbital shaking. After 5 minutes (preincubation), reactions were initiated by the addition of NADPH (1 mM final concentration). At selected time intervals (0, 3, 7, 15, 25, and 45 minutes) post addition of NADPH, aliquots (50 µL) were taken and placed into a 96-shallow-well plate containing ice-cold acetonitrile (150 µL) with carbamazepine (IS, 50 nM). The plates were then centrifuged (3000 rcf at 4°C) for 10 minutes. […]
# Predicted hepatic clearance (CLhep) was calculated using the following equation: [drawing 4] […]
structure (smiles),measurement,setting,value
Cc1nc(-c2cccs2)sc1CNC(=O)Nc1cccs1 [VU0542270],IC50,Kir2.2,> 30 µM
same,IC50,Kir4.2,> 30 µM
same,IC50,[1],> 30 µM
same,inhibition of channels containing SUR1,channels containing SUR1,not channels containing SUR1
same,"Predicted CLhep,u (human)",[2]; corrected to plasma unbound fraction,1.3 mL/min per kg
same,Predicted CLhep (human),[2]; from microsomal CLint,19 mL/min per kg
